Columns and labels:
[1] = human
[2] = human; remark: listed apart in the source
[3] = human; remark: listed apart in the source
[4] = human; remark: listed apart in the source
[5] = human; remark: listed apart in the source
[6] = human; remark: listed apart in the source
[7] = Highest frequency of acute liver toxicity observed during clinical trials, expressed as a percentage. [column '% AIGUE' in source]; details: human
[8] = human, serum, 4383 h
[9] = Times to onset, minimal and maximal, observed in the indexed observations. [column 'DELAI' in source]; details: human
[10] = human, serum
[11] = human; remark: listed apart in the source
[12] = human; remark: listed apart in the source
[13] = Presence of at least one case with successful reintroduction. [column 'REINT' in source]; details: human
[14] = human; remark: listed apart in the source
[15] = Comments (NB not yet translated). [column 'COMMENTAIRES' in source]; details: human
[16] = Highest frequency of moderate liver toxicity observed during clinical trials, expressed as a percentage. [column '% BIOL' in source]; details: human
[17] = human, serum; remark: listed apart in the source
[18] = Proposed mechanism(s) of liver damage. [column 'MEC' in source]; details: human
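Wherever Hepatotoxicity (association with vascular disease) is given: count of indexed literature references reporting vascular liver injury in humans, e.g. peliosis hepatitis, hepatic veno-occlusive disease or Budd-Chiari syndrome.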
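Wherever Hepatotoxicity (benign tumour) is given: value is a count of indexed literature references citing a benign tumour confirmed by histopathology.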
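Wherever Hepatotoxicity (choleostasis) is given: human cholestatic liver injury, shown by histopathology or by peak ALT or AST elevation over alkaline phosphatase ratio below 2, value counts indexed literature reports.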
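Wherever Hepatotoxicity (chronic liver disease) is given: chronic liver injury confirmed by histopathology or persistently raised serum aminotransferase activity beyond 6 months, value given as the count of indexed literature references.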
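Wherever Hepatotoxicity (cirrhosis) is given: value is a count of indexed literature references reporting cirrhosis confirmed by histopathology.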
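Wherever Hepatotoxicity (cytolytic) is given: human cytolytic liver injury, shown by histopathology or by a ratio above 5 of peak ALT or AST elevation to alkaline phosphatase elevation, value counts indexed references.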
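Wherever Hepatotoxicity (granulomatous hepatitis) is given: value is a count of indexed literature references reporting granulomatous liver disease confirmed by histopathology.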
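Wherever Hepatotoxicity (malignant tumour) is given: malignant tumour confirmed by histopathology, value gives the count of indexed literature references reporting it.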
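Wherever Hepatotoxicity (severe hepatitis) is given: human clinical data: severe hepatitis, meaning potentially life-threatening liver failure or clinically observed cases, the value counts how many indexed literature references report it.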
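Wherever Hepatotoxicity (steatosis) is given: steatosis confirmed by histopathology, value is the count of indexed references.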

CC(C)(C)NC(=O)[C@@H]1C[C@@H]2CCCC[C@@H]2CN1C[C@@H](O)[C@H](Cc1ccccc1)NC(=O)[C@H](CC(N)=O)NC(=O)c1ccc2ccccc2n1
Hepatotoxicity (severe hepatitis) ([1]; Liver): 0 | Hepatotoxicity (cytolytic) ([2]; Liver): 10 | Hepatotoxicity (association with vascular disease) [3]: 0 | Hepatotoxicity (choleostasis) ([4]; Liver): 0 | Hepatotoxicity (cirrhosis) [5]: 0 | Hepatotoxicity (malignant tumour) [6]: 0 | Hepatotoxicity (acute) ([7]; Liver): 12.5% | Hepatotoxicity (chronic liver disease) [8]: 0 | Hepatotoxicity (time to onset) [9]: < 1 day - 6 months | Hepatotoxicity (moderate) [10]: 7 | Hepatotoxicity (granulomatous hepatitis) ([11]; Liver): 0 | Hepatotoxicity (benign tumour) [12]: 0 | Hepatotoxicity (successful reintroduction) [13]: yes | Hepatotoxicity (steatosis) [14]: 0 | Hepatotoxicity (comment) [15]: REACTIVATION_HVB | Hepatotoxicity (moderate) ([16]; Liver): 44%

Nc1cc([As]2[As](c3ccc(O)c(N)c3)[As](c3ccc(O)c(N)c3)[As](c3ccc(O)c(N)c3)[As]2c2ccc(O)c(N)c2)ccc1O.Nc1cc([As]2[As](c3ccc(O)c(N)c3)[As]2c2ccc(O)c(N)c2)ccc1O (configuration not stated)
Hepatotoxicity (severe hepatitis) [1]: 1 | Hepatotoxicity (cytolytic) [2]: 1 | Hepatotoxicity (association with vascular disease) [3]: 0 | Hepatotoxicity (choleostasis) [4]: 1 | Hepatotoxicity (cirrhosis) [5]: 0 | Hepatotoxicity (acute) [17]: 6 | Hepatotoxicity (malignant tumour) [6]: 0 | Hepatotoxicity (acute) [7]: 0% | Hepatotoxicity (chronic liver disease) [8]: 0 | Hepatotoxicity (time to onset) [9]: 1 week - 1 year | Hepatotoxicity (moderate) [10]: 0 | Hepatotoxicity (granulomatous hepatitis) [11]: 0 | Hepatotoxicity (benign tumour) [12]: 0 | Hepatotoxicity (successful reintroduction) [13]: yes | Hepatotoxicity (steatosis) [14]: 0 | Hepatotoxicity (comment) [15]: CHOLESTASE_PROLONGEE CHOLANGITE | Hepatotoxicity (moderate) [16]: 0%

CC(C)(C)NC(=O)[C@@H]1CN(Cc2cccnc2)CCN1C[C@@H](O)C[C@@H](Cc1ccccc1)C(=O)N[C@H]1c2ccccc2C[C@H]1O.O
Hepatotoxicity (severe hepatitis) ([1]; Liver): 4 | Hepatotoxicity (cytolytic) [2]: 8 | Hepatotoxicity (association with vascular disease) [3]: 0 | Hepatotoxicity (choleostasis) [4]: 0 | Hepatotoxicity (cirrhosis) [5]: 0 | Hepatotoxicity (acute) [17]: 12 | Hepatotoxicity (malignant tumour) [6]: 0 | Hepatotoxicity (acute) ([7]; Liver): 9.1% | Hepatotoxicity (chronic liver disease) [8]: 0 | Hepatotoxicity (time to onset) [9]: 5 hours - 19 months | Hepatotoxicity (moderate) [10]: 5 | Hepatotoxicity (granulomatous hepatitis) [11]: 0 | Hepatotoxicity (benign tumour) [12]: 0 | Hepatotoxicity (successful reintroduction) [13]: yes | Hepatotoxicity (steatosis) [14]: 3 | Hepatotoxicity (comment) [15]: REACTIVATION_HVB/HVC LITHIASE | Hepatotoxicity (moderate) ([16]; Liver): 8%

CC(C(=O)O)c1ccc(N2CC=CC2)c(Cl)c1 (configuration not stated) [PIRPROFEN]
Hepatotoxicity (severe hepatitis) [1]: 8 | Hepatotoxicity (cytolytic) [2]: 9 | Hepatotoxicity (mechanism) [18]: Toxic Metabolite | Hepatotoxicity (association with vascular disease) [3]: 0 | Hepatotoxicity (choleostasis) [4]: 2 | Hepatotoxicity (cirrhosis) [5]: 1 | Hepatotoxicity (acute) [17]: 9 | Hepatotoxicity (malignant tumour) [6]: 0 | Hepatotoxicity (acute) [7]: 0.3% | Hepatotoxicity (chronic liver disease) [8]: 1 | Hepatotoxicity (time to onset) [9]: 1 week - 1 year | Hepatotoxicity (moderate) [10]: 5 | Hepatotoxicity (granulomatous hepatitis) [11]: 0 | Hepatotoxicity (benign tumour) [12]: 0 | Hepatotoxicity (successful reintroduction) [13]: yes | Hepatotoxicity (steatosis) [14]: 2 | Hepatotoxicity (moderate) [16]: 2.8%

Cc1ncc(CO)c(CO)c1O [PYRIDOXINE]
Hepatotoxicity (severe hepatitis) ([1]; Liver): 0 | Hepatotoxicity (cytolytic) ([2]; Liver): 1 | Hepatotoxicity (mechanism) ([18]; Liver): Dose-dependant | Hepatotoxicity (association with vascular disease) [3]: 0 | Hepatotoxicity (choleostasis) ([4]; Liver): 0 | Hepatotoxicity (cirrhosis) [5]: 0 | Hepatotoxicity (acute) [17]: 1 | Hepatotoxicity (malignant tumour) [6]: 0 | Hepatotoxicity (acute) ([7]; Liver): 0% | Hepatotoxicity (chronic liver disease) [8]: 0 | Hepatotoxicity (time to onset) [9]: 2 months | Hepatotoxicity (moderate) [10]: 2 | Hepatotoxicity (granulomatous hepatitis) ([11]; Liver): 0 | Hepatotoxicity (benign tumour) [12]: 0 | Hepatotoxicity (successful reintroduction) [13]: yes | Hepatotoxicity (steatosis) [14]: 0 | Hepatotoxicity (moderate) ([16]; Liver): 6%

CCC1NC(=O)c2cc(S(N)(=O)=O)c(Cl)cc2N1 (configuration not stated) [QUINETHAZONE]
Hepatotoxicity (severe hepatitis) [1]: 0 | Hepatotoxicity (cytolytic) [2]: 0 | Hepatotoxicity (mechanism) [18]: Allergic | Hepatotoxicity (association with vascular disease) [3]: 0 | Hepatotoxicity (choleostasis) [4]: 1 | Hepatotoxicity (cirrhosis) [5]: 0 | Hepatotoxicity (acute) [17]: 1 | Hepatotoxicity (malignant tumour) [6]: 0 | Hepatotoxicity (acute) [7]: 0% | Hepatotoxicity (chronic liver disease) [8]: 0 | Hepatotoxicity (time to onset) [9]: 2 months | Hepatotoxicity (moderate) [10]: 0 | Hepatotoxicity (granulomatous hepatitis) [11]: 0 | Hepatotoxicity (benign tumour) [12]: 0 | Hepatotoxicity (successful reintroduction) [13]: yes | Hepatotoxicity (steatosis) [14]: 0 | Hepatotoxicity (moderate) [16]: 0%

Cc1nc2ccc(CN(C)c3ccc(C(=O)N[C@@H](CCC(=O)O)C(=O)O)s3)cc2c(=O)[nH]1 [RALTITREXED]
Hepatotoxicity (severe hepatitis) [1]: 3 | Hepatotoxicity (cytolytic) [2]: 7 | Hepatotoxicity (mechanism) [18]: Dose-dependant | Hepatotoxicity (association with vascular disease) [3]: 0 | Hepatotoxicity (choleostasis) [4]: 1 | Hepatotoxicity (cirrhosis) [5]: 1 | Hepatotoxicity (acute) [17]: 8 | Hepatotoxicity (malignant tumour) [6]: 0 | Hepatotoxicity (acute) [7]: 21.9% | Hepatotoxicity (chronic liver disease) [8]: 0 | Hepatotoxicity (time to onset) [9]: 2 weeks - 17 weeks | Hepatotoxicity (moderate) [10]: 20 | Hepatotoxicity (granulomatous hepatitis) [11]: 0 | Hepatotoxicity (benign tumour) [12]: 0 | Hepatotoxicity (successful reintroduction) [13]: yes | Hepatotoxicity (steatosis) [14]: 1 | Hepatotoxicity (moderate) [16]: 100%

CCCCCCCCNC(C)C(O)c1ccc(SC(C)C)cc1 (configuration not stated) [SULOCTIDIL]
Hepatotoxicity (severe hepatitis) [1]: 2 | Hepatotoxicity (cytolytic) [2]: 7 | Hepatotoxicity (mechanism) [18]: Allergic | Hepatotoxicity (association with vascular disease) [3]: 0 | Hepatotoxicity (choleostasis) [4]: 3 | Hepatotoxicity (cirrhosis) [5]: 4 | Hepatotoxicity (acute) [17]: 8 | Hepatotoxicity (malignant tumour) [6]: 0 | Hepatotoxicity (acute) [7]: 0.5% | Hepatotoxicity (chronic liver disease) [8]: 1 | Hepatotoxicity (time to onset) [9]: 1 week - 1 year | Hepatotoxicity (moderate) [10]: 3 | Hepatotoxicity (granulomatous hepatitis) [11]: 0 | Hepatotoxicity (benign tumour) [12]: 0 | Hepatotoxicity (successful reintroduction) [13]: yes | Hepatotoxicity (steatosis) [14]: 1 | Hepatotoxicity (moderate) [16]: 15%

CC(C)(C)c1ccc(C(O)CCCN2CCC(C(O)(c3ccccc3)c3ccccc3)CC2)cc1 (configuration not stated) [TERFENADINE]
Hepatotoxicity (severe hepatitis) ([1]; Liver): 0 | Hepatotoxicity (cytolytic) [2]: 2 | Hepatotoxicity (association with vascular disease) [3]: 0 | Hepatotoxicity (choleostasis) [4]: 2 | Hepatotoxicity (cirrhosis) [5]: 0 | Hepatotoxicity (malignant tumour) [6]: 0 | Hepatotoxicity (acute) ([7]; Liver): 0% | Hepatotoxicity (chronic liver disease) [8]: 0 | Hepatotoxicity (time to onset) [9]: 4 weeks - 5 months | Hepatotoxicity (moderate) [10]: 1 | Hepatotoxicity (granulomatous hepatitis) [11]: 0 | Hepatotoxicity (benign tumour) [12]: 0 | Hepatotoxicity (successful reintroduction) [13]: yes | Hepatotoxicity (steatosis) [14]: 0 | Hepatotoxicity (comment) [15]: DESTRUCTION_VB | Hepatotoxicity (moderate) ([16]; Liver): 19.2%

Cn1c(=O)c2[nH]cnc2n(C)c1=O.O [THEOPHYLLINE]
Hepatotoxicity (severe hepatitis) [1]: 0 | Hepatotoxicity (cytolytic) [2]: 1 | Hepatotoxicity (mechanism) [18]: Dose-dependant | Hepatotoxicity (association with vascular disease) [3]: 0 | Hepatotoxicity (choleostasis) [4]: 0 | Hepatotoxicity (cirrhosis) [5]: 0 | Hepatotoxicity (acute) [17]: 1 | Hepatotoxicity (malignant tumour) [6]: 0 | Hepatotoxicity (acute) [7]: 0% | Hepatotoxicity (chronic liver disease) [8]: 0 | Hepatotoxicity (time to onset) [9]: 4 days - 11 days | Hepatotoxicity (moderate) [10]: 2 | Hepatotoxicity (granulomatous hepatitis) [11]: 0 | Hepatotoxicity (benign tumour) [12]: 0 | Hepatotoxicity (successful reintroduction) [13]: yes | Hepatotoxicity (steatosis) [14]: 0 | Hepatotoxicity (moderate) [16]: 55.6%

CCCC(C)C1(CC)C(=O)NC(=S)NC1=O (configuration not stated) [THIOPENTAL]
Hepatotoxicity (severe hepatitis) [1]: 0 | Hepatotoxicity (cytolytic) [2]: 1 | Hepatotoxicity (mechanism) [18]: Dose-dependant | Hepatotoxicity (association with vascular disease) [3]: 0 | Hepatotoxicity (choleostasis) [4]: 0 | Hepatotoxicity (cirrhosis) [5]: 0 | Hepatotoxicity (acute) [17]: 2 | Hepatotoxicity (malignant tumour) [6]: 0 | Hepatotoxicity (acute) [7]: 0% | Hepatotoxicity (chronic liver disease) [8]: 0 | Hepatotoxicity (time to onset) [9]: 1 day - 5 days | Hepatotoxicity (moderate) [10]: 4 | Hepatotoxicity (granulomatous hepatitis) [11]: 0 | Hepatotoxicity (benign tumour) [12]: 0 | Hepatotoxicity (successful reintroduction) [13]: yes | Hepatotoxicity (steatosis) [14]: 1 | Hepatotoxicity (moderate) [16]: 87%

INTERFERON GAMMA-1A
Hepatotoxicity (severe hepatitis) [1]: 1 | Hepatotoxicity (cytolytic) [2]: 2 | Hepatotoxicity (mechanism) [18]: Dose-dependant | Hepatotoxicity (association with vascular disease) [3]: 0 | Hepatotoxicity (choleostasis) [4]: 0 | Hepatotoxicity (cirrhosis) [5]: 0 | Hepatotoxicity (acute) [17]: 3 | Hepatotoxicity (malignant tumour) [6]: 0 | Hepatotoxicity (acute) [7]: 0% | Hepatotoxicity (chronic liver disease) [8]: 0 | Hepatotoxicity (time to onset) [9]: 6 days - 3 months | Hepatotoxicity (moderate) [10]: 50 | Hepatotoxicity (granulomatous hepatitis) [11]: 0 | Hepatotoxicity (benign tumour) [12]: 0 | Hepatotoxicity (successful reintroduction) [13]: yes | Hepatotoxicity (steatosis) [14]: 0 | Hepatotoxicity (moderate) [16]: 65%
